Test systems include 786-0 renal; DU-145 prostate; IGROV1 ovarian; MCF7 breast; SF-268 CNS; SF-539 CNS; SK-MEL-5 melanoma; SK-OV-3 ovarian; SN12C renal; SNB-19 CNS.
Test in all cases: DTP human tumour cell line panel, 48 h

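Tested at 5 concentrations; 48 h exposure; 96-well plates; endpoints linearly interpolated, else capped at highest concentration. Here, GI50 denotes the concentration required for 50% inhibition of growth. TGI marks complete inhibition of growth.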

Usually GI50 stands for the concentration giving 50% growth inhibition. By TGI is commonly meant the concentration at which net growth stops. Turning to `C[n+]1c(/C=C\c2ccc(Cl)cc2)ccc2ccccc21`, the GI50 with 786-0 renal was more than 100 µM; in the assay on DU-145 prostate, 89.8 µM; with IGROV1 ovarian, 27.2 µM; in the assay with MCF7 breast it was 20.2 µM; with SF-268 CNS, 29.8 µM; in the assay with SF-539 CNS it was 15.9 µM. Further, the GI50 in the assay with SK-MEL-5 melanoma was 5.56 µM; in the assay on SK-OV-3 ovarian it was 46.6 µM; in the assay with SN12C renal it was 4.13 µM; in the assay on SNB-19 CNS, 4.49 µM. For the same compound, the TGI with 786-0 renal was more than 100 µM; with DU-145 prostate, more than 100 µM; with IGROV1 ovarian it was more than 100 µM; with MCF7 breast, more than 100 µM; in the assay with SF-268 CNS, more than 100 µM; in the assay with SF-539 CNS, 92.2 µM. In addition, the TGI in the assay with SK-MEL-5 melanoma was 18 µM; in the assay with SK-OV-3 ovarian it was more than 100 µM; in the assay with SN12C renal, 84 µM; with SNB-19 CNS, more than 100 µM.

Take `CCOc1cccc(/C=N/NC(=O)c2ccc(Nc3ccnc(C(F)(F)F)c3)cc2)c1O`: the GI50 with 786-0 renal was 0.951 µM; in the assay with DU-145 prostate, 2.46 µM; in the assay with IGROV1 ovarian, 2.32 µM; in the assay on MCF7 breast, 0.7 µM; in the assay with SF-268 CNS, 1.07 µM; with SF-539 CNS, 1.1 µM. In addition, the GI50 in the assay with SK-MEL-5 melanoma is 1.18 µM; in the assay on SK-OV-3 ovarian, 2.01 µM; with SN12C renal, 2.45 µM; with SNB-19 CNS it was 4.69 µM. Moreover, the total growth inhibition concentration (TGI) in the assay with 786-0 renal is more than 94.3 µM; in the assay with DU-145 prostate it was more than 100 µM; in the assay with IGROV1 ovarian, more than 23.9 µM; with MCF7 breast, more than 59 µM; in the assay on SF-268 CNS, more than 100 µM; in the assay on SF-539 CNS, 11.6 µM. Moreover, the TGI in the assay on SK-MEL-5 melanoma is 8.11 µM; in the assay on SK-OV-3 ovarian it was more than 57.8 µM; with SN12C renal, more than 100 µM; in the assay on SNB-19 CNS, more than 100 µM.

For the compound `CCOc1c(Br)cc(C2C(C(=O)OC)=CN(C)C=C2C(=O)OC)cc1OC`, the GI50 in the assay with 786-0 renal was more than 100 µM; in the assay on DU-145 prostate, more than 100 µM; with IGROV1 ovarian, more than 100 µM; in the assay on MCF7 breast, 40.6 µM; in the assay with SF-268 CNS, more than 100 µM; in the assay on SF-539 CNS it was more than 100 µM. The GI50 was 40.5 µM in the assay on SK-MEL-5 melanoma, more than 100 µM with SK-OV-3 ovarian, 78.6 µM with SN12C renal and 83.8 µM in the assay with SNB-19 CNS. The TGI in the assay with 786-0 renal, in the assay with DU-145 prostate, in the assay on IGROV1 ovarian, in the assay with MCF7 breast, in the assay with SF-268 CNS and with SF-539 CNS was more than 100 µM throughout. Moreover, the TGI with SK-MEL-5 melanoma, with SK-OV-3 ovarian, in the assay with SN12C renal and in the assay with SNB-19 CNS was more than 100 µM throughout.

As to `CC1=C(C(=O)Nc2ccc(F)c(Cl)c2)C(c2ccccc2Cl)NC(=S)N1` (stereo not drawn), the GI50 in the assay on 786-0 renal is 30 µM; in the assay with DU-145 prostate, more than 50 µM; in the assay with IGROV1 ovarian, 22.8 µM; in the assay with MCF7 breast, 21.7 µM; in the assay with SF-268 CNS, 27.6 µM; in the assay with SF-539 CNS it was more than 50 µM. For the same compound, the GI50 with SK-MEL-5 melanoma is 12.4 µM; with SK-OV-3 ovarian, more than 50 µM; in the assay with SN12C renal it was 13.3 µM; in the assay with SNB-19 CNS it was 40 µM. For the same compound, the TGI in the assay with 786-0 renal, in the assay on DU-145 prostate, in the assay on IGROV1 ovarian, in the assay on MCF7 breast, with SF-268 CNS and with SF-539 CNS was more than 50 µM each time. The concentration for total growth inhibition (TGI) in the assay on SK-MEL-5 melanoma was more than 50 µM; in the assay on SK-OV-3 ovarian it was more than 50 µM; in the assay with SN12C renal, 42.9 µM; with SNB-19 CNS, more than 50 µM.

Take `C[C@@H]1CN(C(=O)c2ccc(NC(=O)c3cc(O[C@H](C)c4c(Cl)ccc(F)c4Cl)c(N)nn3)cc2)C[C@H](C)N1`: the GI50 was 4.63 µM with 786-0 renal; 6.7 µM with DU-145 prostate; 4.38 µM in the assay with IGROV1 ovarian; 0.567 µM in the assay with MCF7 breast; 4.5 µM in the assay on SF-268 CNS; 2.21 µM with SF-539 CNS. Moreover, the GI50 with SK-MEL-5 melanoma is 1.55 µM; in the assay with SK-OV-3 ovarian, 11.1 µM; in the assay on SN12C renal it was 2.41 µM; in the assay with SNB-19 CNS it was 5.41 µM. Besides, the TGI was 15.7 µM in the assay on 786-0 renal; 19.2 µM with DU-145 prostate; 20.4 µM in the assay on IGROV1 ovarian; 12.6 µM in the assay on MCF7 breast; 17.7 µM in the assay with SF-268 CNS; 5.07 µM in the assay with SF-539 CNS. The TGI is 3.44 µM with SK-MEL-5 melanoma, 23.1 µM in the assay with SK-OV-3 ovarian, 13.6 µM with SN12C renal and 18.1 µM in the assay on SNB-19 CNS.

As to `O=[N+]([O-])c1ccc(Br)c([N+](=O)[O-])c1`, the GI50 in the assay on 786-0 renal was 3.35 µM; in the assay on DU-145 prostate, 1.72 µM; in the assay with IGROV1 ovarian, 1.92 µM; with MCF7 breast it was 1.9 µM; in the assay with SF-268 CNS, 1.93 µM; in the assay with SF-539 CNS it was 2.06 µM. Moreover, the GI50 was 2.3 µM in the assay with SK-MEL-5 melanoma, 8.37 µM in the assay with SK-OV-3 ovarian, 2.37 µM with SN12C renal and 2.9 µM in the assay on SNB-19 CNS. Also, the TGI in the assay with 786-0 renal was 10.9 µM; in the assay with DU-145 prostate, 3.12 µM; in the assay on IGROV1 ovarian, 3.94 µM; in the assay on MCF7 breast, 4.75 µM; with SF-268 CNS it was 3.94 µM; with SF-539 CNS it was 5.01 µM. In addition, the TGI in the assay with SK-MEL-5 melanoma stood at 5.64 µM; with SK-OV-3 ovarian, 20.6 µM; in the assay on SN12C renal, 5.68 µM; in the assay on SNB-19 CNS, 9.28 µM.

`O=c1c2cccc(Cl)c2sc2c(NCCCNCCO)nc3ccccc3c12`: the GI50 in the assay with 786-0 renal is 1.69 µM; in the assay with DU-145 prostate it was 1.98 µM; in the assay with IGROV1 ovarian it was 0.941 µM; in the assay on MCF7 breast, 1.13 µM; in the assay on SF-268 CNS, 3.66 µM; with SF-539 CNS it was 1.67 µM. Besides, the results for the GI50 with SK-MEL-5 melanoma, in the assay on SN12C renal and with SNB-19 CNS were 6.5 µM, 2.62 µM and 5.8 µM, respectively. Further, the concentration for total growth inhibition (TGI) was 3.52 µM in the assay with 786-0 renal; 4.85 µM in the assay on DU-145 prostate; 6.86 µM in the assay with IGROV1 ovarian; 2.66 µM with MCF7 breast; 16.7 µM with SF-268 CNS; 3.32 µM in the assay on SF-539 CNS. The TGI was determined as 21 µM with SK-MEL-5 melanoma, 14 µM in the assay with SN12C renal and 20 µM in the assay on SNB-19 CNS.

The record behind these values is PubChem BioAssay (NCI).
